Results as given in paper PMC5571359, “Screening the Medicines for Malaria Venture Pathogen Box across Multiple Pathogens Reclassifies Starting Points for Open-Source Drug Discovery” (Antimicrobial Agents and Chemotherapy, 2017).
Where two headings read alike, the source gives them in different places.

What was measured:
liver stage = details: cited from earlier work; for IC50: liver stage, ref Pathogen Box supporting information, read-out: LIVER STAGE Pbox IC50
[1] = tested on: Plasmodium falciparum 3D7 asexual blood stage; assay: microbe, parasite or virus in culture
P. falciparum ABS = details: cited from earlier work; for EC50: ChEMBL Data
[2] = tested on: NF54-pfs16-LUC-GFP stage IV gametocytes; assay: Plasmodium falciparum late stage gametocyte (LSG) image-based assay; type: cell-based; details: for IC50: Plasmodium falciparum
HepG2 = details: cited from earlier work; for CC50: read-out: HepG2 PBox CC50 µM, HepG2 CC50, ref Pathogen Box supporting information
[3] = tested on: P. falciparum stage V gametocytes; details: cited from earlier work; for IC50: stage V gametocytes, read-out: PF stage V GAMS PBox IC50; for activity against gametocytes (stage V), PBox supporting information: ref Pbox supporting information
HEK293 cells = assay: HEK293 resazurin cell cytotoxicity assay; details: Homo sapiens
[4] = tested on: T. b. brucei 427 bloodstream trypanosomes; assay: T. b. brucei resazurin viability assay; type: cell-based, Trypanosoma brucei brucei; details: for IC50: Trypanosoma brucei
T. brucei brucei = details: ref Pbox supporting information; read-out: T.b. brucei Pbox IC50; cited from earlier work
[5] = tested on: T. cruzi C4 β-galactosidase reporter parasite in MRC 5SV2 host cells; details: cited from earlier work
[6] = tested on: L. infanium (macrophages); parameters: method as in Pbox supporting information; details: ref Pbox supporting information; cited from earlier work
T. brucei rhodesiense = details: ref Pbox supporting information; read-out: T .b. rohdensie Pbox IC50; cited from earlier work
[7] = tested on: L. donovani MHOM/IN/80/DD8 intracellular amastigotes; assay: Leishmania donovani intracellular amastigote assay in THP-1 cells; type: cell-based; details: Leishmania donovani, THP-1, intracellular amastigotes
[8] = tested on: T. cruzi intracellular amastigotes; assay: Intracellular anti-Trypanosoma cruzi image-based assay (amastigotes); type: cell-based; details: for IC50: Trypanosoma cruzi, intracellular amastigotes, read-out: T cruzi Discovery Biology IC50
[9] = 3D7, read-out: Pf 3D7 Discovery Biology IC50 µM, P. falciparum 3D7 asexual blood stage, Discovery Biology
[10] = TCMDC, read-out: TCMDC (ref 93) EX50
[11] = Pf 3D7, ref Pathogen Box supporting information, read-out: Pf 3D7 Pbox IC50
[12] = NF54, read-out: Pf Stage IV GAMS Discovery Biology IC50 µM, stage IV gametocytes, Discovery Biology
[13] = ref Pathogen Box supporting information
[14] = HEK293, read-out: HEK % Inhibition 20uM/IC50 Discovery Biology
[15] = ref Pbox supporting information, read-out: T. cruzi Pbox IC50
[16] = 3D7, read-out: Antiplasmodial IC50 (ABS), PBox compounds, P. falciparum 3D7
[17] = some values marked *, read-out: L, donovani Discovery Biology IC50
[18] = read-out: T b.brucei Discovery Biology IC50
[19] = HepG2, ref PBox supporting information
[20] = HEK293, read-out: HEK % Discovery Biology IC50

Compound	IC50 [1, 9] [µM]	EC50 (P. falciparum ABS; [10]) [µM]	IC50 (P. falciparum ABS; [11]) [µM]	IC50 [2, 12] [µM]	IC50 [3, 13] [µM]	activity in the Discovery Biology stage IV gametocyte (LSG) assay [2]	IC50 (T. brucei brucei) [µM]	IC50 [5, 15] [µM]	IC50 [6] [µM]	IC50 (T. brucei rhodesiense) [µM]	IC50 [4, 18] [µM]	further results
COc1ccc(-c2cnc3ccc(N4CCCC4)nn23)cc1OC [MMV023985]	1.99	0.77	0.7	5.83	0.41	–	–	–	–	–	–	IC50 (liver stage): 0.63 µM; CC50 (HepG2): > 10 µM
Cc1ccc(-c2nc(CN(Cc3ccccn3)C(C)C)cs2)o1 [MMV1088520]	–	–	–	–	–	–	–	–	–	–	–	inhibition at 20 µM (HEK293 cells; [14]): 79%; IC50 (P. falciparum ABS; P. falciparum 3D7, ref PBox supporting information, read-out: Pf 3D7 Pbox IC50): > 2 µM; IC50 ([2]; NF54, read-out: Pf Stage IV GAMS Discovery Biology IC50 µM, stage IV gametocytes): 0.67 µM; IC50 ([3]; ref PBox supporting information): 0.45 µM
COc1ccc(-c2cnc3ccc(NCc4ccc(S(N)(=O)=O)cc4)nn23)cn1 [MMV010545]	0.58	0.87	0.49	1.17	1.03	–	–	–	–	–	–	IC50 (liver stage): 6.8 µM; CC50 (HepG2): > 10 µM
CN(C)c1cc(NC(=O)Nc2ccccc2)c2ccccc2n1 [MMV006901]	–	0.41	0.6	–	3.13	only moderately active	–	–	–	–	–	IC50 (liver stage): > 10 µM; EC50 (P. falciparum ABS; NITD, read-out: NITD (ref 94) EC50): 0.15 µM; IC50 ([4]; PBox compounds, read-out: IC50 T. brucei brucei (Discovery Biology)): 3.36 µM; CC50 (HepG2): > 10 µM
N=C(N)Nc1ccc(-c2ccc(-c3ccc(NC(=N)N)c(Cl)c3)o2)cc1Cl [MMV688271]	–	–	–	–	–	–	0.6	0.66	10.2	0.2	0.52	IC50 (HEK293 cells; [14]): > 20 µM; IC50 ([5]; 7 days exposure, ref PBox supporting information, read-out: T. cruzi IC50 in the PBox supporting information file): < 1 µM; IC50 [1, 16]: 1.21 µM; IC50 [7, 17]: 3.31 µM; activity against T. cruzi in the Discovery Biology assay [8]: lack of activity; activity against T. cruzi at 8 μM in the Discovery Biology assay ([8]; 8 μM): no activity; HepG2 PBox CC20 (HepG2; [19]): 13.5 µM
Cc1cc(Nc2ccc(C(F)(F)F)cc2)n2ccnc2n1 [MMV011229]	–	–	–	–	–	did not find this compound to be active	–	–	–	–	–	activity against liver stage, PBox supporting information (liver stage; ref Pbox supporting information): ktba; IC50 (P. falciparum ABS; ref Pbox supporting information, read-out: ABS activity, PBox supporting information): 0.38 µM; activity against gametocytes (stage V), PBox supporting information [3]: ktba
O=C(Nc1ccc(F)c(-c2nc3cc(-c4ccccc4)cnc3[nH]2)c1)N1CCCC1 [MMV688372]	–	–	–	–	–	–	< 0.13	< 0.13	0.16	< 0.13	0.02	IC50 (HEK293 cells; [20]): 4.6 µM; IC50 ([7]; PBox compounds, read-out: IC50 L. donovani (Discovery Biology)): 1.15 µM; IC50 [7, 17]: 1.51 µM; IC50 [8]: 0.19 µM
CCc1ccccc1-n1c(C)cn2c3c(=O)n(C(C(=O)OC)C(C)C)c(=O)n(C)c3nc12 (stereo not drawn) [MMV688550]	–	–	–	–	–	–	< 0.13	0.99	> 32	< 0.13	0.13	IC50 (HEK293 cells; [14]): > 20 µM; IC50 [1, 16]: 2.48 µM; selectivity index (SI) T. cruzi versus HEK293 ([8]; HEK293): > 31; IC50 [8]: 0.64 µM; selectivity index (SI) T. brucei brucei versus HEK293 ([4]; HEK293): > 154; HepG2 PBox CC20 (HepG2; [19]): 44.3 µM
CNC(=O)c1nn(C)c2c1C(C)(C)Cc1cnc(Nc3ccc(N4CCN(C)CC4)cc3)nc1-2 [MMV676602]	–	–	–	–	–	–	< 0.13	1.05	0.85	< 0.13	0.17	IC50 (HEK293 cells; [20]): 1.3 µM; IC50 ([1]; 3D7, read-out: Pf 3D7 Discovery Biology IC50, P. falciparum 3D7 asexual blood stage): 3.17 µM; IC50 [7, 17]: 1.43 µM; HepG2 PBox CC20 (HepG2): <0.26 µM
Nc1nccc2ccc(-c3ccc4nccn4c3)cc12 [MMV023233]	0.11	0.1	0.16	3.08	0.4	demonstrate activity	–	–	–	–	3.29	inhibition at 20 µM (HEK293 cells; [14]): 74%; activity against gametocytes (stage V), PBox supporting information [3]: demonstrate activity
COc1cccc(CC(=O)N2CCC(n3c(C)nc4ccc(F)cc43)CC2)c1 [MMV020081]	0.21	0.91	0.24	0.68	0.31	demonstrate activity	–	–	–	–	–	activity against gametocytes (stage V), PBox supporting information [3]: demonstrate activity
